{"source": "patent US11773368B2", "about": "“Culture method for differentiating primordial germ cells into functionally mature oocytes” (TOKYO UNIVERSITY OF AGRICULTURE, priority 2015, dated 2023)", "tested_on": "primordial germ cells in gonads from female mouse fetuses at 12.5 dpc", "assay": "In vitro organ culture of gonad (secondary follicle formation)", "assay_type": "cell-based", "conditions": "(vii) FBS/1 μM MPP group, 1 μM day 5-11", "procedure": "For the medium of the organ culture, the basal medium supplemented with FBS (Gibco, Thermo Fisher Scientific Inc.), SPS (SAGE In vitro Fertilization), the estrogen receptor antagonist, 7α, 17β-[9-([4,4,5,5,5-pentafluoropentyl]sulfinyl)nonyl]estra-1,3,5(10)-triene-3,17-diol; ICI 182,780 (ICI; Tocris Bioscience), 4-hydroxytamoxifen (Sigma-Aldrich), and MPP (Methylpiperidino pyrazole; Cayman Chemical) were added at the indicated concentrations for each experimental group below. The α-MEM medium (Gibco, Thermo Fisher Scientific Inc.) supplemented with 1.5 mM 2-O-α-d glucopyranosyl-1-ascorbic acid (Tokyo Chemical Industry), 10 units/mL penicillin, and 10 μg/mL streptomycin (Sigma-Aldrich) was used as a basal medium (referred to the basal medium hereafter as α-MEM).\nICI 182,780 and 4-hydroxytamoxifen was prepared as follows. ICI 182,780 and 4-hydroxytamoxifen was diluted to 100 mM using DMSO, and cryopreserved stock was prepared. MPP was diluted to 10 mM using DMSO, and cryopreserved stock was prepared. 1 mM solutions of ICI 182, 780 and 4-hydroxytamoxifen were prepared by diluting the 100 mM stocks 100-fold with DMSO just before use and were added to the medium at the indicated final concentrations for each experimental group. MPP was added to the medium at 1 μM as the final concentration just before use.\nThe gonads for the organ culture were collected with mesonephros or without mesonephros from female mouse fetuses at 12.5 dpc (FIG. 1a). 2.2 ml of the medium was added to each 6-well culture plate used for the organ culture. Transwell®-COL membrane (3.0-μm pore size, 24-mm diameter; Corning) was put on each well of the 6-well culture plate. The gonads were transferred on the membrane and were cultured for 17 days at 37° C. under 5% CO2 and 95% air. Approximately half of the medium in each well was replaced with fresh medium every other day. In the example in which the gonad was cultured with mesonephros, mesonephros was removed from the gonad at day 7 of the organ culture.\nThe in vitro organ culture of the gonads was performed according to the following conditions described below. The gonads were cultured for total 17 days in each conditions below (FIG. 2):\n(i) culture for the complete 17 days period in 10% FBS containing α-MEM (α-MEM+FBS; FBS group);\n(ii) culture for the complete 17 days period in 10% SPS containing α-MEM (α-MEM+SPS; SPS group);\n(iii) culture for the complete 17 days period in 10% KSR containing α-MEM (α-MEM+KSR; KSR group);\n(iv) culture in 10% FBS containing α-MEM for 4 days with a shift to 10% SPS containing α-MEM for 6 days from day 5 and a shift to 10% FBS containing α-MEM until day 17 from day 11 (αMEM+FBS/SPS; FBS/SPS group);\n(v) culture in 10% FBS containing α-MEM for 4 days with a shift to 10% FBS containing α-MEM with the addition of 10 nM, 100 nM, 1 μM, 5 μM, or 10 μM (final concentration) ICI for 6 days from day 5 and a shift to 10% FBS containing α-MEM until day […] (αMEM+FBS/10 nM ICI; FBS/10 nM ICI group, αMEM+FBS/100 nM ICI; FBS/100 nM ICI group, αMEM+FBS/1 μM ICI; FBS/1 μM ICI group, αMEM+FBS/5 μM ICI; FBS/5 μM ICI group, or αMEM+FBS/10 μM ICI; FBS/10 μM ICI group);\n(vi) culture in 10% FBS containing α-MEM for 4 days with a shift to 10% FBS containing α-MEM with the addition of 1 μM (final concentration) 4-hydroxytamoxifen for 6 days from day 5 and a shift to 10% FBS containing α-MEM until day 17 from day 11 (αMEM+FBS/1 μM Tamoxifen; FBS/1 μM Tamoxifen group);\n(vii) culture in 10% FBS containing α-MEM for 4 days with a shift to 10% FBS containing α-MEM with the addition of 1 μM (final concentration) MPP for 6 days from day 5 and a shift to 10% FBS containing α-MEM until day 17 from day 11 (αMEM+FBS/1 μM MPP; FBS/1 μM MPP group).\nVitrification and warming were conducted as follows by reference to Wang, X. et al., “Successful in vitro culture of pre-antral follicles derived from vitrified murine ovarian tissue: oocyte maturation, fertilization, and live births.” Reproduction 141, 183-191 (2011). […]", "data": [{"molecule": "Cc1c(-c2ccc(O)cc2)nn(-c2ccc(O)cc2)c1-c1ccc(OCCN2CCCCC2)cc1", "note": "[MPP, 4-[1-(4-hydroxyphenyl)-4-methyl-5-[4-[2-(1-piperidinyl)ethoxy]phenyl]-1H-pyrazol-3-yl]-phenol]", "values": [{"measurement": "secondary follicles collected from one ovary", "value": 15}]}]}
